Source: patent US10184933B2, “Compositions, systems and methods for gene expression noise drug screening and uses thereof” (priority 2013, dated 2019)
“Also recorded” adds a separate entry of the source. Where a name gives a salt, the structure may show the parent alone. Read-outs that look alike come from different tables or passages of the source.

What was measured:
HIV-1 LTR promoter [1] = type: cell-based; conditions: for variability in gene expression (noise magnitude): known transcriptional modulators applied to the isoclone target, FIG. 6D
HIV-1 LTR promoter [2] = assay: Two-reporter system (LTR-d2GFP and LTR-mCherry) noise measurement; type: cell-based; conditions: alternate set of integration sites
JLat cell line 8.6 = system: JLat cell line 8.6
Description: FIG. 17 schematically depicts reactivation percentage versus drug toxicity for conventional reactivation cocktails (e.g. TNF+Prostratin, SAHA+Prostratin, SAHA+TNF+Prostratin) and 21 cocktails containing noise-enhancer compounds in combination with TNF+Prostratin. Controls: TNF alone, Prostratin alone, and Untreated, as indicated. Measurements were performed in duplicate on JLat cell line 8.6 after 48 h treatment. […] Details are described, e.g., in Example 9.
(§1) To test whether reactivation could be further optimized, the doses of noise enhancers and activators were varied (FIG. 14).

HIV-1 LTR promoter [3] = assay: Two-reporter system (LTR-d2GFP and LTR-mCherry) noise measurement; type: cell-based; conditions: FIG. 6E; for d2GFP noise / mCherry noise: known transcriptional activators; for transcriptional burst frequency (decreasing noise in mCherry): transcriptional modifiers
Description: Without being bound by theory, a destabilized reporter is required to observe transcriptional noise with shorter time scales. GFP noise magnitude (quantified by the variance over the mean fluorescence squared, CV^2) and mean fluorescence were measured by high-throughput flow cytometry 24 hours post 10 uM drug exposure. To control for extrinsic variability in gene expression due to cell volume and state a conservative gating on the population forward versus side scatter was applied (See General Methods). A second LTR driving a long-lived mCherry reporter was integrated and screened alongside the destabilized reporter drug target to control for fluctuations in global resources and post-transcriptional noise sources (FIG. 6E).
To distinguish between compounds that primarily target transcription versus post-transcriptional processes and global resources (extrinsic noise) a second reporter of the LTR promoter driving a stable mCherry gene was included in the same targeted cell population used in the drug noise screen (FIG. 6E). The stable reporter averages out and is unaffected by fluctuations due to episodic transcription. Theory predicts that the destabilized d2GFP reporter can detect transcriptional bursting noise contributions (γp>>kon,koff, where γp is the fluorescent reporter degradation rate) while the two reporters together will move their noise magnitudes to changes in non-transcriptional noise sources. Filtering out non-transcriptional noise signatures of VM hits increases the probability for synergistic reactivation of latency. Noise from the two reporters was compared using the same processing as the LTR-d2GFP. The LTR-mCherry ΔCV^2 of the 85 selected VMs primarily land along the ΔCV^2 d2GFP axis. […]. Of these 25 compounds 15 were identified as modifiers of cell cycle, ATP, inflammation, post-translational modifications, and translation.
In addition to the GFP reporter in the LTR-d2GFP cell line, an LTR driving a long half-life mCherry reporter was present in the cell line. […] To remove compounds that altered CV^2 post transcriptionally, compounds that affected the CV^2 long-lived red reporter while conserving its mean mCherry level were removed. This method continues development of the original and decade-old 2-reporter system for intrinsic versus extrinsic noise measurements in bacteria (Elowitz et al., (2002) Science 297:1183-1186).

[4] = system: latent HIV-1 in primary human CD4+ T cells; type: cell-based
Description: (§2) Details on the Siliciano T-Cell model of HIV-1 latency can be found in Yang et al., 2009, J Clin Invest 119:3473-3486. Details on the Planelles T-Cell model of HIV-1 latency can be found in Bosque and Planelles, 2009, Blood 113:58-65.
(§3) To test if VMs enhance reactivation in a primary cell model of latency 14 VMs were selected from the 85 VMs initially screened on the JLat cell line. […] Two separate primary cell models of latency were screened (Bosque and Planelles, 2009, Blood 113:58-65; Yang et al., 2009, J Clin Invest 119:3473-3486) The Siliciano model of latency is generated using primary human CD4+ T cells which are transduced with Bcl-2 to allow long-term in vitro survival. The Bcl-2^+ cells are activated with -CD3/-CD28 antibody and infected with a GFP expressing virus. Cells remain in culture for over a month to allow transition into resting memory states and then sorted for GFP-cells after which the sorted cells are the latent pool of cells tested for reactivation. […] Reactivation experiments were designed with a positive control (PMA with Ionomycin or -CD3/-CD28 activation) as well as media only or VM treatment measurements.

[5] = system: latent HIV-1 in JLat 8.6 cells; type: cell-based
[6] = system: latent HIV-1 in primary cells of two donors; type: cell-based
Description: as §2, §3

HIV-1 LTR promoter [7] = assay: Single-cell time-lapse fluorescence microscopy of polyclonal LTR d2GFP cell population; type: cell-based; conditions: hydrochloride
Description: Lentiviral vectors expressing the LTR-GFP cassette in the absence of Tat were described (Weinberger et al., 2005, Cell, 122(2):169-182) and used to infect 5×10^5 Jurkat cells at a multiplicity of infection <0.1, resulting in 25,000-50,000 infected cells each presumably with a unique integration site. Cells were then sorted by FACS to isolate green fluorescent protein-labeled (GFP+) cells and fluorescently imaged on glass-bottom dishes in RPMI 1640 with 10% fetal calf serum and 1% penicillin-streptomycin and 10 μM of VM at t=0 h for the population which was pre-treated with VM 1 day before imaging. […] For each trajectory, noise autocorrelation [Φ(t)] and magnitude (CV^2) were calculated using an established noise-processing algorithm (Weinberger at al., 2008, Nature Genetics, 40(4):466-470; Dar at al., 2012, Proc Natl Acad Sci USA 109:17454-17459; Boehm et al., 2013, Cell Cycle 12:452-462).
To assess whether identified VMs are specific to the integration site of the drug screen target, a polyclonal LTR d2GFP population was treated with select VM hits and imaged using time-lapse single cell fluorescence microscopy (Dar et al., 2012, Proc Natl Acad Sci USA 109:17454-17459; Boehm et al., 2013, Cell Cycle 12:452-462) (FIG. 6C). […]

[8] = system: latent HIV-1 in JLat cell lines; assay: Dose response of reactivation in JLat cell lines (FIG. 14); type: cell-based; conditions: with TNF or Prostratin
Description: FIGS. 14A and 14B schematically depict dose response curves for compounds V14 and V82 with TNF and Prostratin. FIG. 14A schematically depicts V14 dose response curves with four different concentrations of TNF (left) and five different concentrations of Prostratin (right) at 24 and 48 hours. […] Details are described, e.g., in Example 9.
as §1

[9] = in vivo, cited from earlier work
[10] = Pharmakon 1600 library, 10 uM, 24 hours, FIG. 10

Structure (SMILES): O=C(CCCCCCC(=O)Nc1ccccc1)NO [SAHA, N-hydroxy-N′-phenyl-octanediamide]
- identified as variability enhancer (VE) in noise screen (HIV-1 LTR promoter [1]; [10]): variability enhancers
- variability in gene expression (noise magnitude) (HIV-1 LTR promoter [1]): increase variability in gene expression; also recorded: variability enhancers
- transcriptional variability (d2GFP) with dose response (HIV-1 LTR promoter [2]): increasing transcriptional variability
- off-target cytotoxicity for uninfected cells (JLat cell line 8.6): substantial off-target cytotoxicity
- d2GFP noise (HIV-1 LTR promoter [3]): increase d2GFP noise
- mCherry noise (HIV-1 LTR promoter [3]): decrease mCherry noise
- transcriptional burst frequency (decreasing noise in mCherry) (HIV-1 LTR promoter [3]): increase transcriptional burst frequency

Structure (SMILES): CC(/C=C/C(=O)NO)=C\[C@@H](C)C(=O)c1ccc(N(C)C)cc1 [TSA, [R-(E,E)]-7-[4-(Dimethylamino)phenyl]-N-hydroxy-4,6-dimethyl-7-oxo-2,4-heptadienamide]
- variability in gene expression (noise magnitude) (HIV-1 LTR promoter [1]): increase variability in gene expression; also recorded: variability enhancers
- transcriptional variability (d2GFP) with dose response (HIV-1 LTR promoter [2]): increasing transcriptional variability
- d2GFP noise (HIV-1 LTR promoter [3]): increase d2GFP noise
- mCherry noise (HIV-1 LTR promoter [3]): decrease mCherry noise
- transcriptional burst frequency (decreasing noise in mCherry) (HIV-1 LTR promoter [3]): increase transcriptional burst frequency

Structure (SMILES): C[C@]12CC[C@@H]3c4ccc(OC(=O)N(CCCl)CCCl)cc4CC[C@H]3[C@@H]1CC[C@@H]2O [V3, estramustine]
- identified as variability enhancer (VE) in noise screen (HIV-1 LTR promoter [1]; [10]): variability enhancers
- synergy with activators [4]: synergized with either PMA, prostratin or bryostatin; also recorded: appear to synergize with all three activators
- synergy in reactivation of HIV-1 latency [5]: synergized

Structure (SMILES): O=C(O)Cc1ccc(-c2ccccc2)cc1 [V4, felbinac]
- identified as variability enhancer (VE) in noise screen (HIV-1 LTR promoter [1]; [10]): variability enhancers
- synergy with bryostatin [6]: synergized with bryostatin
- synergy in reactivation of HIV-1 latency [5]: synergized

Structure (SMILES): C[C@]12C=CC(=O)N[C@@H]1CC[C@@H]1[C@@H]2CC[C@]2(C)[C@@H](C(=O)Nc3cc(C(F)(F)F)ccc3C(F)(F)F)CC[C@@H]12 [V10, dutasteride]
- identified as variability enhancer (VE) in noise screen (HIV-1 LTR promoter [1]): variability enhancers
- synergy with activators [4]: synergized with either PMA, prostratin or bryostatin; also recorded: appear to synergize with all three activators
- synergy in reactivation of HIV-1 latency [5]: synergized

Structure (SMILES): O=C(O)COCCN1CCN(C(c2ccccc2)c2ccc(Cl)cc2)CC1 (stereo not drawn) [V11, cetirizine hydrochloride]
- high frequency noise magnitude (HF-CV^2) versus untreated polyclonal population (HIV-1 LTR promoter [7]): increased high frequency noise magnitude; also recorded: increased noise magnitude trends above the untreated population
- gene expression noise versus compound concentration (HIV-1 LTR promoter [1]): increasing trend in gene expression noise
- identified as variability enhancer (VE) in noise screen (HIV-1 LTR promoter [1]): variability enhancers
- viability when combined with TNFα and Prostratin (JLat cell line 8.6): without significant reduction in viability
- concentration at peak in HIV-1 reactivation [5]: 25 µM
- synergy in reactivation of HIV-1 latency [5]: synergized
- reactivation relative to Prostratin alone ([5]; hydrochloride): about twice; also recorded: about three times
- reactivation relative to TNFα alone ([5]; hydrochloride): about twice; also recorded: about three times
- reactivation relative to TNFα or Prostratin alone (dose response surface) ([5]; hydrochloride): more than three times; also recorded: almost double; also recorded: greater reactivation
- reactivation when combined with TNFα and Prostratin ([5]; hydrochloride): further increase reactivation; also recorded: increased activation

Structure (SMILES): C[C@@H]1CC[C@H]2[C@@H](C)C(=O)O[C@@H]3O[C@@]4(C)CC[C@@H]1[C@]32OO4 [V14, artemisinin]
- concentration at peak activation ([8]; 24 and 48 hours): about 10 μM
- identified as variability enhancer (VE) in noise screen (HIV-1 LTR promoter [1]; [10]): variability enhancers
- viability when combined with TNFα and Prostratin (JLat cell line 8.6): without significant reduction in viability
- synergy with bryostatin [6]: synergized with bryostatin
- synergy in reactivation of HIV-1 latency [5]: synergized
- reactivation when combined with TNFα and Prostratin ([5]; VM + TNFα + Prostratin, 48 hours): further increase reactivation; also recorded: increased activation

Structure (SMILES): O=c1[nH]c(=O)n([C@H]2C[C@H](O)[C@@H](CO)O2)cc1I [V82, idoxuridine]
- concentration at maximal reactivation ([8]; 48 hours, two JLat cell lines): 50 µM
- identified as variability enhancer (VE) in noise screen (HIV-1 LTR promoter [1]; [10]): variability enhancers
- synergy in reactivation of HIV-1 latency [5]: synergized

Structure (SMILES): CCCC(CCC)C(=O)O [VPA, 2-propylpentanoic acid]
- variability in gene expression (noise magnitude) (HIV-1 LTR promoter [1]): increase variability in gene expression; also recorded: variability enhancers
- time of peak serum levels ([9]; po): 1 to 4 h
- serum half-life [9]: 6 to 16 h
- d2GFP noise (HIV-1 LTR promoter [3]): increase d2GFP noise
- mCherry noise (HIV-1 LTR promoter [3]): decrease mCherry noise
